pIC50: −log10 of the molar value.
Test system: isolated rabbit urinary bladder
Test: Relaxation effect on potassium-induced contraction of isolated rabbit urinary bladder
Type: cell-based
Conditions: Oryctolagus cuniculus; isolated rabbit urinary bladder strips pre-contracted with high-K+ (30 mM); relaxation relative to 10^-4 M papaverine as 100%; rank A, B or C; read-out: IC50 value (50% relaxation concentration)
Protocol: Relaxation Effect on Potassium-Induced Contraction of Isolated Rabbit Urinary Bladder
Urinary bladder was isolated from Male NZW rabbits (body weight: 2.0-3.5 kg) and immersed in ice-cold Krebs-bicarbonate solution (in mM: 118 NaCl, 4.7 KCl, 2.55 CaCl2, 1.18 MgSO4, 1.18 KH2PO4, 24.88 NaHCO3 and 11.1 glucose). The urinary bladder was cut into longitudinal strips (5 mm length, 3-4 mm width) after mucosal layer was removed.
Preparations were mounted in organ baths containing 10 ml of Krebs solution maintained at 37° C. and gassed with 95% O2/5% CO2. Accordingly, preparations were stretched with an initial tension of 2.0±1.0 g, and changes in isometric tension were measured by force-displacement transducer. The preparations were pre-contracted by changing organ-bath solution into high-K^+ (30 mM) Krebs solution (in mM: 118 NaCl, […], 2.55 CaCl2, 1.18 MgSO4, 1.18 KH2PO4, 24.88 NaHCO3 and 11.1 glucose).
After stable tension was obtained, compounds were added into organ baths cumulatively (10^−8 M-10^−4 M). The effects of compounds were expressed as a percentage of the maximum relaxation produced by 1O^−4 M papaverine as 100%. 50% relaxation concentration (IC50) was calculated and IC50 value range (μM) of compounds of the present invention was shown in the following Table 68 with a rank of A, B or C. These ranges are as mentioned below. 3 μM≧C>1 μM≧B>0.5 μM≧A

**Q.** `Cc1onc(-c2ccccc2)c1-c1ccc(C(N)=O)c(O)c1` [Example 155, 2-hydroxy-4-(5-methyl-3-phenylisoxazol-4-yl)benzamide] was tested. Which pIC50 did it give?
**A.** 5.52 to 6.00

**Q.** With `Cc1onc(-c2ccccc2)c1-c1ccc(OCCO)cc1` [Example 152, 2-[4-(5-methyl-3-phenylisoxazol-4-yl)phenoxy]ethanol] as the molecule, how does the pIC50 read?
**A.** 6.00 to 6.30

**Q.** With `Cc1cccc(-n2nc(C(F)(F)F)cc2-c2ccc(C)c(S(N)(=O)=O)c2)c1` [Example 45] as the molecule, how does the pIC50 read?
**A.** 5.52 to 6.00

**Q.** How did the pIC50 turn out when `Cc1onc(-c2cccnc2)c1-c1ccc(C(=O)NCCO)cc1` [Example 207] was run?
**A.** 6.00 to 6.30

**Q.** How did the pIC50 turn out when `Cc1ccc(-c2cc(C(F)(F)F)nn2-c2ccccc2)cc1S(=O)(=O)NCCO` [Example 46] was run?
**A.** 5.52 to 6.00

**Q.** How did the pIC50 turn out when `COCCNS(=O)(=O)c1ccc(-n2nc(C(F)(F)F)cc2-c2ccc(C)cc2)cc1` [Example 30] was run?
**A.** 5.52 to 6.00

**Q.** `Cc1ccc(-c2cc(C(F)(F)F)nn2-c2ccc(C(=O)NCCO)cc2)cc1` [Example 51] was tested. Which pIC50 did it give?
**A.** 5.52 to 6.00

**Q.** `COC(=O)NCCNS(=O)(=O)c1ccc(-n2nc(C(F)(F)F)cc2-c2ccc(C)cc2)cc1` [Example 59, methyl {2-[({4-[5-(4-methylphenyl)-3-(trifluoromethyl)-1H-pyrazol-1-yl]phenyl}sulfonyl)amino]-ethyl}carbamate] was tested. Which pIC50 did it give?
**A.** 5.52 to 6.00

**Q.** With `Cc1onc(-c2ccc(N(C)C)cc2)c1-c1ccc(S(N)(=O)=O)cc1` [Example 115] as the molecule, how does the pIC50 read?
**A.** > 6.30

Test system: anesthetized rats
Test: Inhibitory effect on the rhythmic bladder contractions induced by substance P in anesthetized rats
Type: in vivo, rat
Conditions: time during which frequency of rhythmic bladder contraction was completely inhibited; 0.25 mg/kg of compound, intravenous; substance P-infused anesthetized rats
Protocol: Inhibitory Effect on the Rhythmic Bladder Contractions Induced by Substance P in Anesthetized Rats
For the experiments, Sprague-Dawley female rats (9 to 12 weeks old) weighing between 200 to 300 g were used. After urethane anesthetization (subcutaneously administered with a dose of 1.2 g/kg), cannulae were placed in both right and left femoral veins. One intravenous catheter was used for administration of compounds, and the other was for the substance P (0.33 μg/kg/min) infusion. We also cannulated into ureter to pass urine. Polyethylene catheters were inserted into carotid artery for continuous monitoring of arterial blood pressure and heart rate. For continuous infusion, transurethral bladder catheter was inserted into the bladder through the urethra and tied in place by a ligature around the urethral orifice. One end of the catheter was attached to a pressure transducer in order to measure intravesical pressure. The other end of the catheter was used for infusion of saline into the bladder. After stabilization of blood pressure and heart rate and after the bladder was emptied, cystometry was performed by filling the bladder slowly with about 0.6 ml of saline. After about 10 minutes, intravenous infusion of substance P (0.33 μg/kg/min) was started for stabilization of the micturition reflex. Compounds were administered after stable rhythmic bladder contraction was obtained over 15 minutes. All compounds were dissolved or suspended in saline containing 0.5% Tween 80 for intravenous administration (0.1 ml/kg).
Also, pre-administration of iberiotoxin, a selective large conductance calcium-activated K channel blocker (0.15 mg/kg, intravenous administration) reduced inhibitory effect of the compounds of the present invention on the rhythmic bladder contraction.

**Q.** For `Cc1onc(-c2ccccc2)c1-c1ccc(C(=O)N[C@@H](C)CO)cc1` [Example 135, N-[(1S)-2-hydroxy-1-methylethyl]-4-(5-methyl-3-phenylisoxazol-4-yl)benzamide], which “100% inhibiting time” value is on record?
**A.** 17.8 min

**Q.** For `Cc1onc(-c2ccccc2)c1-c1ccc(S(=O)(=O)NO)cc1` [Example 171], which “100% inhibiting time” value is on record?
**A.** 12.8 min

**Q.** Which “100% inhibiting time” value does the source give for `Cc1onc(-c2cccnc2)c1-c1ccc(C(=O)NCCO)cc1` [Example 207] here?
**A.** 13.9 min

**Q.** `COC(=O)NCCNS(=O)(=O)c1ccc(-n2nc(C(F)(F)F)cc2-c2ccc(C)cc2)cc1` [Example 59, methyl {2-[({4-[5-(4-methylphenyl)-3-(trifluoromethyl)-1H-pyrazol-1-yl]phenyl}sulfonyl)amino]-ethyl}carbamate] was tested. Which “100% inhibiting time” value did it give?
**A.** 5.7 min
